In patent publication US12240828B2, “Heteroaromatic compounds as vanin inhibitors” (Boehringer Ingelheim International GmbH, priority 2018, dated 2025) one finds IC50 data, which are given here for 32 molecules.

One assay deals with Pantetheinase (vanin). Kind of assay: Human Whole Blood assay. The note with it: pantethine substrate, pantothenic acid formation by RapidFire MS, read-out: HWB IC50. It counts as cell-based. The procedure: Human Whole Blood assay: Pantetheinase (vanin) converts panteheine into pantothenic acid and cysteamine. Accordingly, in the described protocol vanin activity is quantified by formation of pantothenic acid after pantetheine supplementation via pantethine. The assay is applicable to identify vanin inhibitors. Compound stocks are dissolved in DMSO at 10 mM. Further dilutions are performed in RPMI 1640 medium (Gibco, #A-10491-01) and final concentrations in the assay are 0.032 nM-500 nM.
Human blood is drawn into a blood bag (1% heparin, 50 I.E./mL). Blood is aliquoted into cavities of 96-deep-well plates at 290 μL and mixed with 10 μL compound solution or vehicle (30 sec at 1400 rpm on a shaker). Equilibration follows at room temperature, 250 rpm and for 30 min. The assay is starts by adding 10 μL of substrate solution (20 μM pantethine in 1 mM DTT, 0.0025% Brij-35, 50 mM HEPES, pH7.5) to each well, except for some blank wells which receive […] substrate buffer (1 mM DTT, 0.0025% Brij-35, 50 mM HEPES, pH7.5) only. Samples are thoroughly shaken (30 sec, 1400 rpm) and reaction is allowed to take place at room temperature, 250 rpm and for 5 min. The reaction is stopped by addition of a vanin tool inhibitor in excess (BI-1 total conc. 10 μM). Centrifugation of the plate follows at 4° C., 665 G for 10 min. Then the blood plasma samples (100 μL) are transferred into another 96-deep-well plate and proteins are precipitated (5 min on ice) by adding 100 μL of ice cold precipitation solution (1 μM labelled pantothenic acid (di-β-alanine-13C6,15N2 calcium salt, Sigma, #705837) in acetonitrile). Afterwards the plate is centrifuged (4° C., 3220 G, 10 min) and supernatants (50 μL) are collected into another 96-deep-well plate and mixed (10 sec, 1400 rpm) with 150 μL ice cold formic acid (0.1%, Carl Roth GmbH+Co.KG, #CP03.1). The formation of pantothenic acid is detected by RapidFire Mass Spectrometry. A TripleQuad 6500+ (ABSciex, Germany) is equipped with an LC-1290 system, a RapidFire autosampler (Agilent, Germany) and a C18 cartridge Type C 12 μL (Agilent Cat #G9526-80000). Mobile phase A is consisting of 0.09% formic acid and 0.01% trifluoroacetic acid in water and mobile phase B of 0.09% formic acid and 0.01% trifluoroacetic acid in acetonitrile/methanol/water=47.5/47.5/5.

The target of assay [1] is T1, FLAG-tagged Vanin-1 (AA 22-493, T26I) (Homo sapiens, UniProt O95497, T26I).
T1 construct: FLAG-tagged Vanin-1 (AA 22-493, T26I, produced internally); FLAG; made in house
T1 sequence (O95497 22-493 T26I): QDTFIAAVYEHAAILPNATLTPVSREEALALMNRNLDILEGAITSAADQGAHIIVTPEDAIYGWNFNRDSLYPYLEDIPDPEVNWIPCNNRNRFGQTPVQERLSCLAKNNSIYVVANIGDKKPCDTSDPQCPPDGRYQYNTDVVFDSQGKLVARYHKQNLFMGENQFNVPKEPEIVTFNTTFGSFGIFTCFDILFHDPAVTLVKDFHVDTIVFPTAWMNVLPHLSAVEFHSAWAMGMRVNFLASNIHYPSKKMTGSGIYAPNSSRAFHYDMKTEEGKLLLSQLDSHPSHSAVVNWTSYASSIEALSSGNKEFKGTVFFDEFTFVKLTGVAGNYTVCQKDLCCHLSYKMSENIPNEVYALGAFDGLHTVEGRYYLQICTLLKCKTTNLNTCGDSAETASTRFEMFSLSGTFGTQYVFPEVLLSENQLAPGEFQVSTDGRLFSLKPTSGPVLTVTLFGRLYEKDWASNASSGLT
Kind of assay: Vanin-1 enzymatic assay. It counts as biochemical. As to conditions: 0.1 nM Vanin-1, 3 μM D-pantethine, pantothenic acid formation by RapidFire MS; geometric mean if multiple measurements; read-out: VNN-1 IC50. The procedure:
The test compounds are dissolved in 100% DMSO at a concentration of 10 mM and in a first step diluted in DMSO to a concentration of 5 mM, followed by serial dilution steps in 100% DMSO. Dilution factor and number of dilution steps may vary according to needs. Typically 8 different concentrations by 1:5 dilutions are prepared, a further intermediate dilutions of the substances is carried out with assay buffer resulting in 1% final DMSO concentration in the assay.
0.1 nM of FLAG-tagged Vanin-1 (AA 22-493, T26I, produced internally) and test compounds are incubated at room temperature for 20 minutes in assay buffer (1 mM DTT, 0.0025% Brij-35, 50 mM HEPES, pH7.5). D-Pantethine (Sigma, Cat #P2125-5G) in assay buffer is added (final concentration 3 μM) and incubated for additional 30 minutes at room temperature. Total assay volume typically is 40 μl but might be adjusted according to needs. Reaction is stopped by adding equal volume of stop solution as the reaction mixture to reach 100 nM HD-pantothenic acid (as an internal standard) and 1% TFA. Assay plates are centrifuged for 2 minutes and the formation of pantothenic acid is detected by RapidFire Mass Spectrometry (mobile phase A: 0.1% formic acid and 0.01% trifluoroacetic acid in water; mobile phase B: 47.5% acetonitrile, 47.5% methanol, 0.1% formic acid and 0.01% trifluoroacetic acid in water) using a C18, 12 μL cartridge (Agilent Cat #G9205A).
The values given in Table I result from measurements of one or more samples. In case of multiple measurements the geometric mean values are given.

The term IC50 denotes the concentration that gives 50% inhibition. For the molecule `C[C@@H](Nc1ccc(C(=O)N2CC[C@H](N(C)C(=O)C3(C)CCC3)C2)cn1)c1cnccn1` [Example 1.30], the IC50 in the assay on Pantetheinase (vanin) amounted to 3.28 nM; in assay [1], 0.4 nM.
Take `CN(C(=O)C1(C)CCC1)[C@H]1CCN(C(=O)c2ccc(NCc3ccc(N)nc3)nc2)C1` [Example 1.31]: the IC50 was determined as 2.63 nM in the assay with Pantetheinase (vanin) and 0.44 nM in assay [1].
Take `CN(C(=O)C1CC1)[C@H]1CCN(C(=O)c2ccc(NCc3cnccc3C(F)(F)F)nc2)C1` [Example 1.33]: the values for the concentration for half-maximal inhibition (IC50) (in the assay on Pantetheinase (vanin); in assay [1]) were 2.05 nM and 0.46 nM, respectively.
The matching figures for `CC(=O)N(C)[C@H]1CCN(C(=O)c2ccc(NC3CCc4ncccc43)nc2)C1` (stereo partly shown) [Example 1.37]: 1.07 nM and 0.61 nM.
In the same order, the values of `CN(C(=O)C1CC1)[C@H]1CCN(C(=O)c2ccc(NCc3cncc(F)c3)nc2)C1` [Example 1.38] are 5.19 nM and 0.65 nM.
With `CC(=O)N(C)[C@H]1CCN(C(=O)c2ccc(NC(C)c3cccc(C#N)c3)nc2)C1` (stereo partly shown) [Example 1.40], the results for the 50% inhibitory concentration (IC50) (in the assay with Pantetheinase (vanin); in assay [1]) were 2.1 nM and 0.67 nM, respectively.
In the same order, the values of `CC(=O)N(C)[C@H]1CCN(C(=O)c2ccc(NCc3cccs3)nc2)C1` [Example 1.42] are 9.88 nM and 0.85 nM.
In the same order, the values of `CC(=O)N(C)[C@H]1CCN(C(=O)c2ccc(NCc3cncc(F)c3)nc2)C1` [Example 1.43] are 3.24 nM and 0.86 nM.
In the same order, the values of `CN(C)c1ccc(CNc2ccc(C(=O)N3CC[C@H](N(C)C(=O)C4CC4)C3)cn2)cn1` [Example 1.44] are 7.03 nM and 0.91 nM.
Regarding `COc1ccc(CNc2ccc(C(=O)N3CC[C@H](N(C)C(=O)C4CC4)C3)cn2)cn1` [Example 1.47], the values for the 50% inhibitory concentration (IC50) (in the assay with Pantetheinase (vanin); in assay [1]) were 5.93 nM and 0.97 nM, respectively.
The matching figures for `CN(C(=O)C1CC1)[C@H]1CCN(C(=O)c2ccc(NC(C)(C)c3ccccc3)nc2)C1` [Example 2.1, N-Methyl-N-[(3S)-1-{6-[(2-phenylpropan-2-yl)amino]pyridine-3-carbonyl}pyrrolidin-3-yl]cyclopropanecarboxamide]: 3.57 nM and 0.06 nM.
For `CN(C(=O)C1CCC1)[C@H]1CCN(C(=O)c2ccc(NC(C)(C)c3ccccc3)nc2)C1` [Example 2.2], the values for the IC50 (in the assay on Pantetheinase (vanin); in assay [1]) were 4.49 nM and 0.07 nM, respectively.
In the same order, the values of `CN(C(=O)C1CCC1)[C@H]1CCN(C(=O)c2ccc(NCc3cccnc3)nc2)C1` [Example 3.1, N-Methyl-N-[(3S)-1-(6-{[(pyridin-3-yl)methyl]amino}pyridine-3-carbonyl)pyrrolidin-3-yl]cyclobutanecarboxamide] are 1.33 nM and 0.07 nM.
The matching figures for `C[C@H](Nc1ccc(C(=O)N2CCC(C)(C#N)C2)cn1)c1ccccc1` (stereo partly shown) [Example 3.2]: 1.94 nM and 0.19 nM.
In the same order, the values of `CC1(C#N)CCN(C(=O)c2ccc(NCc3cccnc3)nc2)C1` (stereo not shown) [Example 3.3] are 1.6 nM and 0.24 nM.
For the molecule `CC(=O)N(C)[C@H]1CCN(C(=O)c2ccc(NCc3ccc(Cl)cc3)nc2)C1` [Example 4.1, N-[(3S)-1-(6-{[(4-Chlorophenyl)methyl]amino}pyridine-3-carbonyl)pyrrolidin-3-yl]-N-methylacetamide], the IC50 in the assay on Pantetheinase (vanin) was 5.88 nM; in assay [1], 0.68 nM.
In the same order, the values of `CC(C)(Nc1ccc(C(=O)N2CC[C@H](N3CCCC3=O)C2)cn1)c1ccccc1` [Example 4.2] are 2.43 nM and 0.1 nM.
On to `CC(C)(Nc1ccc(C(=O)N2CC[C@H](N3CCOC3=O)C2)cn1)c1ccccc1` [Example 4.3], for which the 50% inhibitory concentration (IC50) is 2.32 nM in the assay with Pantetheinase (vanin) and 0.12 nM in assay [1].
The matching figures for `CC(=O)N(C)[C@H]1CCN(C(=O)c2ccc(NC(C)(C)c3ccccc3)nc2)C1` [Example 4.4]: 1.34 nM and 0.12 nM.
The matching figures for `CN(C(=O)C1(C#N)CC1)[C@H]1CCN(C(=O)c2ccc(NC(C)(C)c3ccccc3)nc2)C1` [Example 4.5]: 1.27 nM and 0.14 nM.
For `CC(=O)N(C)[C@H]1CCN(C(=O)c2ccc(NC(C)(C)c3ccc(Cl)cc3)nc2)C1` [Example 4.7], the concentration for half-maximal inhibition (IC50) was 3.68 nM with Pantetheinase (vanin) and 0.22 nM in assay [1].
The matching figures for `CC(=O)N(C)[C@H]1CCN(C(=O)c2ccc(NCc3cccnc3)nc2)C1` [Example 7.1, N-Methyl-N-[(3S)-1-(6-{[(pyridin-3-yl)methyl]amino}pyridine-3-carbonyl)pyrrolidin-3-yl]acetamide]: 1.78 nM and 0.13 nM.
The matching figures for `CN(C(=O)C1CC(F)(F)C1)[C@H]1CCN(C(=O)c2ccc(NC(C)(C)c3cccnc3)nc2)C1` [Example 8.2]: 1 nM and 0.08 nM.
In the same order, the values of `CC1(C#N)CCN(C(=O)c2ccc(NC(C)(C)c3cccnc3)nc2)C1` (stereo not shown) [Example 8.3] are 0.85 nM and 0.08 nM.
As to `CN(C(=O)C1CC(F)(F)C1)[C@H]1CCN(C(=O)c2ccc(NCc3cccnc3)nc2)C1` [Example 8.4], the results for the half-inhibitory concentration (IC50) (with Pantetheinase (vanin); in assay [1]) were 1.16 nM and 0.13 nM, respectively.
The matching figures for `CN(c1ncccn1)[C@H]1CCN(C(=O)c2ccc(NCc3cccnc3)nc2)C1` [Example 8.5]: 16.3 nM and 0.14 nM.
In the same order, the values of `CN(C(=O)C1CC1)[C@H]1CCN(C(=O)c2ccc(NC3(c4cncnc4)CC3)nc2)C1` [Example 8.6] are 1.84 nM and 0.15 nM.
In the same order, the values of `CC(=O)N(C)[C@H]1CCN(C(=O)c2ccc(NC(C)(C)c3cccnc3)nc2)C1` [Example 8.7] are 3.29 nM and 0.16 nM.
As to `O=C(c1ccc(NCc2ccc(Cl)cc2)nc1)N1CC[C@H](N2CCCC2=O)C1` [Example 8.9], the IC50 with Pantetheinase (vanin) was determined as 4.89 nM; in assay [1] it was 0.32 nM.
The matching figures for `CN(C(=O)C1(C)CCC1)[C@H]1CCN(C(=O)c2ccc(NC3(c4cncnc4)CC3)nc2)C1` [Example 8.10]: 2.16 nM and 0.33 nM.
In the same order, the values of `O=C(c1ccc(NCc2cccnc2)nc1)N1CCC2(CCOCC2)C1` [Example 8.11] are 3.3 nM and 0.34 nM.
In the same order, the values of `O=C(c1ccc(NCc2ccc(Cl)cc2)nc1)N1CC[C@H](N2CCOC2=O)C1` [Example 8.12] are 10.4 nM and 0.41 nM.
